Key:
[1] = Fluorescent signal stability under continuous excitation (automatic exposure time, ASA 1600); assay type: physicochemical; settings: mouse brain section
Protocol: Sections of paraffin-embedded mouse brain were deparaffinized and non-specific binding sites were blocked by treatment for thirty minutes in PBS-BB. Monoclonal antibody against microtubule associated protein-2 (Sigma) was diluted 1:100,000 in PBS-BB and incubated on the sections overnight at 4° C. Sections were then washed in PBS (three×five minutes each wash) and incubated at room temperature for one hour with HRP-conjugated donkey anti-mouse antibodies (Jackson Immunoresearch Laboratories; West Grove, Pa.) diluted 1:1000 in PBS-BB. […]
The fluorescein labeled section was viewed with a filter set having excitation/emission peaks at 490 nm/520 nm. […] Photomicrographs using standard two second exposures were taken at both time points to assess changes in fluorescence intensity over time. In addition, fluorescence intensity was semi-quantitated at both time points by recording the automatic exposure time required for photomicrographic documentation in a standard field using an ASA setting of 1600 and the MC100 camera system (Zeiss). Using this measure, short exposure times correlate with bright-fluorescence and long exposure times with dim fluorescence.

[2] = biological target: Horseradish peroxidase (HRP) conjugated wheat germ agglutinin (Armoracia rusticana, UniProt P00433); settings: mouse intestine section
Protocol: Sections of paraffin-embedded mouse intestine were deparaffinized, and non-specific binding sites were blocked by treatment for thirty minutes in PBS-blocking buffer (PBS-BB) (0.1 M phosphate buffered saline, pH 7.2; 1.0% bovine serum albumin, 0.2% non-fat powdered milk; and 0.3% Triton X-100). Horseradish peroxidase (HRP) conjugated wheat germ agglutinin (Sigma; St. Louis, Mo.) at a concentration of 10 μg/ml in PBS-BB was incubated on the sections for one hour at room temperature. Sections were then washed in PBS (three×five minutes each wash) and Tris (0.1 M Tris, pH 8.5; three×three minutes each wash). N-(5-hydroxypentyl)-3-(p-hydroxyphenyl) propionamide (HHPA), 1 mg/ml in Tris containing 0.003% H2O2, was then added to the sections at room temperature for ten minutes. Sections were then washed in Tris (three×three minutes each wash) and mounted with Tris:Glycerol (1:1) and coverslipped. Sections were viewed with a Zeiss Axioskop microscope equipped with epifluorescence and filter sets with excitation/emission characteristics of 360 nm/>400 nm (blue-white fluorescence); 490 nm/520 nm (green fluorescence); and 550 nm/570 nm (red fluorescence). Sections were photographed with a Zeiss MC100 camera system.
Wheat germ agglutinin binds to N-acetylglucosamine residues present in abundance in intestinal mucin producing goblet cells. […] The microscopic field was then illuminated for one minute at 360 nm and reexamined as described above. […] Original magnifications 400×.

Chain of Horseradish peroxidase (HRP) conjugated wheat germ agglutinin (P00433 31-338 limits assumed): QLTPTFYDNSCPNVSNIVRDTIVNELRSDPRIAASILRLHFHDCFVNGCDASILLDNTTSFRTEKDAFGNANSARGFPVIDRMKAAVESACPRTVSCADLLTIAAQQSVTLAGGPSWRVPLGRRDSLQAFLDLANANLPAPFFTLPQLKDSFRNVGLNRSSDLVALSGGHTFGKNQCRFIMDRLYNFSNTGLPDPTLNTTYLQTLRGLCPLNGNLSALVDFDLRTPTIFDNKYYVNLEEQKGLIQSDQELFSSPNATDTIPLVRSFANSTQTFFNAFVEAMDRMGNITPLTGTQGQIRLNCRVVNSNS

time required for a standard ASA 1600 exposure ([1]; after fifteen minutes of continuous excitation): 3.1 s
time required for a standard ASA 1600 exposure ([1]; time zero, short exposure = bright fluorescence): 4.1 s
fluorescence signal, blue-white filter set ([2]; 360 nm excitation, before one minute illumination at 360 nm): weak fluorescence signal
fluorescent signal, all three filter sets (blue-white, green, red) ([2]; after one minute illumination at 360 nm, localized to goblet cells): Intense fluorescent signals
fluorescence signal, green or red filter sets ([2]; before one minute illumination at 360 nm): almost no signal
SMILES: O=C(CCc1ccc(O)cc1)NCCCCCO [HHPA, N-(5-hydroxypentyl)-3-(p-hydroxyphenyl) propionamide]

— patent publication US6518036B1, “Method of permanent fluorescent assay” (Nen Life Science Products, Inc., priority 1999, dated 2003)
